In test [1] the test system is 639-V (Bladder Carcinoma). Kind of test: Bliss excess, mean over the matrix (fraction); higher = more synergy. A digest of the protocol:
(§1)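 Bliss excess equals the observed combination effect minus the expected value EA + EB − EA·EB, where EA and EB are the effects of each agent alone. Combination Emax is the second-highest inhibition within the matrix. Inhibition was scaled from CellTiter-Glo 2.0 luminescence, with 0 set by vehicle wells and 1 by blank wells, after 72 hours of two-drug dosing of cells plated in 1536-well plates.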

The subject of test [2] is HARA (Squamous Cell Lung Carcinoma). The test is described as above. A digest of the protocol: as §1
In test [3] the test system is CTB-1 (B-Cell Non-Hodgkin's Lymphoma). The description is as above. A digest of the protocol: as §1
Test [4] relates to SU-DHL-6 (B-Cell Non-Hodgkin's Lymphoma). Described as above. The method in brief:
as §1

In test [5] the test system is OVCAR-8 (Ovarian Carcinoma). Described as above. The method in brief: as §1
Test [6] relates to LoVo (Colorectal Carcinoma). Described as above. A digest of the protocol: as §1
Test [7] deals with KARPAS-231 (B-Cell Non-Hodgkin's Lymphoma). The description is as above. The method in brief:
as §1

In test [8] the test system is 8305C (Thyroid Gland Carcinoma). The test is described as above. A digest of the protocol: as §1
Test [9] has as its system RT-112 (Bladder Carcinoma). The test is described as above. A digest of the protocol: as §1
The test system of another test is Mewo (Melanoma). Described as above. The method in brief:
as §1

For test [10], the system named is EN (Endometrial Carcinoma). The test is described as above. The method in brief: as §1
For test [11], the system named is RKO (Colorectal Carcinoma). The description is as above. The method in brief:
as §1

Test [12] has as its system LB771-HNC (Head and Neck Carcinoma). The test is described as above. The method in brief:
as §1

For test [13], the system named is HO-1-u-1 (Oral Cavity Carcinoma). The description is as above. The method in brief: as §1
The test system of test [14] is NCI-H69 (Small Cell Lung Carcinoma). Described as above. A digest of the protocol: as §1
A further test has as its system COLO-829 (Melanoma). The description is as above. A digest of the protocol: as §1
Test [15] concerns HARA (Squamous Cell Lung Carcinoma). Kind of test: combination Emax (second highest fraction inhibited in the dose matrix, 72 h); higher = more inhibition; extreme values may be limits of the assay. A digest of the protocol: as §1
The subject of the next test is NCI-H28 (Mesothelioma). Described as above. The method in brief: as §1
Test [16] relates to LoVo (Colorectal Carcinoma). The test is described as above. A digest of the protocol: as §1
Test [17] concerns OC-314 (Ovarian Carcinoma). Described as above. The method in brief: as §1

As for `Cc1c2c(nn1C)CSCc1cc(n(C)n1)CSc1cc(c3ccccc3c1)OCCCc1c(C(=O)O)n(C)c3c-2c(Cl)ccc13` [AZD5991] + CC1(C)CCC(CN2CCN(c3ccc(C(=O)NS(=O)(=O)c4ccc(NCC5CCOCC5)c([N+](=O)[O-])c4)c(Oc4cnc5[nH]ccc5c4)c3)CC2)=C(c2ccc(Cl)cc2)C1 [Venetoclax] (first compound max 1 µM, 7x7, partner max 1 µM), the Bliss excess is 0.0009 in test [1]; -0.0091 in [2]; -0.0491 in [3]; 0.0744 in [4]; -0.0157 in test [5]; -0.0217 in [6]. The Bliss excess in [7] is -0.0232; in [8] it was -0.0189; in [9], 0.057; with Mewo (Melanoma) it was 0.0377; in test [10] it was -0.0236; in test [11] it was 0.0107. In addition, the Bliss excess in [12] was 0.0035; in [13], -0.0046; in test [14] it was -0.0383; in the test on COLO-829 (Melanoma) it was -0.0122. Moreover, the “combination Emax” value in [15] stood at 0.294; in the test with NCI-H28 (Mesothelioma), 0.185; in [16], 0.147; in [17] it was 0.147.
On to `CN(CCO)CC[C@H](CSc1ccccc1)Nc1ccc(S(=O)(=O)NC(=O)c2ccc(N3CCC([C@@H](O)c4ccccc4-c4ccc(Cl)cc4)CC3)cc2)cc1S(=O)(=O)C(F)(F)F` [AZD4320] + C=CCn1c(=O)c2cnc(Nc3ccc(N4CCN(C)CC4)cc3)nc2n1-c1cccc(C(C)(C)O)n1 [AZD1775] (first compound max 1 µM, partner max 1 µM), for which the Bliss excess in [1] was -0.0437; in test [2], -0.0129; in test [3], -0.0309; in test [4], 0.14; in test [5], -0.012; in [6], 0.0093. Further, the Bliss excess in test [7] was 0.117; in test [8], -0.0178; in test [9], -0.0285; in the test on Mewo (Melanoma), 0.0306; in test [10] it was -0.0337; in test [11], -0.0003. The Bliss excess is -0.0049 in test [12], 0.0066 in test [13], -0.0213 in test [14] and -0.0167 with COLO-829 (Melanoma). The “combination Emax” value was 0.887 in test [15], 0.437 in the test with NCI-H28 (Mesothelioma), 0.838 in test [16] and 0.619 in test [17].
Take `COc1cc2c(cc1OCCCCCOc1cc3c(cc1OC)C(=O)N1C=C(C)C[C@H]1C=N3)N=C[C@@H]1CC(C)=CN1C2=O` [SG3199] + O=C(c1cc(Cc2n[nH]c(=O)c3ccccc23)ccc1F)N1CCN(C(=O)C2CC2)CC1 [Olaparib] (first compound max 0.001 µM, 7x7, partner max 10 µM): the Bliss excess in test [1] was -0.0289; in test [2] it was -0.0066; in [3] it was -0.043; in test [4], 0.0075; in test [5], -0.0295; in test [6], -0.0455. For the same compound, the Bliss excess in test [7] was 0.0289; in test [8], -0.0854; in test [9] it was -0.0227; in the test with Mewo (Melanoma) it was -0.0489; in test [10], -0.0456; in test [11], -0.0131. In addition, the Bliss excess in [12] is 0.0002; in [13], -0.0205; in test [14] it was -0.0136; in the test with COLO-829 (Melanoma), -0.0476. For the same compound, the “combination Emax” value was determined as 0.174 in test [15], 0.0051 in the test with NCI-H28 (Mesothelioma), 0.14 in [16] and 0.205 in [17].
Regarding `COc1cccc(OCCCN)c1-c1cc(Nc2cnc(C#N)cn2)n[nH]1` [Prexasertib] + CCc1c2c(nc3ccc(O)cc13)-c1cc3c(c(=O)n1C2)COC(=O)[C@]3(O)CC [SN-38] (first compound max 1 µM, 7x7, partner max 0.3 µM), the Bliss excess was -0.0477 in test [1]; 0.0262 in test [2]; -0.0622 in [3]; 0.157 in [4]; 0.0373 in test [5]; -0.0727 in test [6]. In addition, the Bliss excess was -0.0111 in [7]; -0.014 in [8]; 0.104 in test [9]; 0.0881 in the test on Mewo (Melanoma); 0.0282 in test [10]; -0.0686 in test [11]. For the same compound, the Bliss excess was found to be 0 in test [12], 0.0348 in test [13], 0.162 in [14] and 0.0036 in the test on COLO-829 (Melanoma). For the same compound, the “combination Emax” value was 0.966 in test [15], 0.616 in the test on NCI-H28 (Mesothelioma), 0.847 in [16] and 1 in [17].
`CCN(CCO)CCCOc1ccc2c(Nc3cc(CC(=O)Nc4cccc(F)c4)[nH]n3)ncnc2c1` [AZD2811] + O=C(c1cc(Cc2n[nH]c(=O)c3ccccc23)ccc1F)N1CCN(C(=O)C2CC2)CC1 [Olaparib] (first compound max 1 µM, 7x7, partner max 10 µM): the Bliss excess in test [1] was 0.0445; in test [2], -0.0071; in test [3], -0.0508; in [4], 0.0252; in test [5], 0.0244; in test [6], -0.0452. Further, the Bliss excess in test [7] is 0.0091; in test [8] it was -0.0398; in test [9] it was 0.0427; with Mewo (Melanoma), -0.0112; in test [10] it was -0.0657; in [11], 0.0655. The Bliss excess in [12] is 0.0255; in [13], 0.0288; in [14], -0.0259; in the test with COLO-829 (Melanoma), 0.0233. In addition, the “combination Emax” value in test [15] came to 0.318; in the test with NCI-H28 (Mesothelioma), 0.229; in test [16] it was 0.354; in [17] it was 0.487.
Turning to `CN(C)CCCOc1ccc(-c2ccc3ncc4c(c3c2)n(C2CCOCC2)c(=O)n4C)cn1` [AZD0156] + C[C@@H]1COCCN1C2=NC(=NC(=C2)C3(CC3)[S@](=N)(=O)C)C4=C5C=CNC5=NC=C4 [AZD6738] (first compound max 1 µM, 7x7, partner max 10 µM), the Bliss excess was 0.0109 in [1]; 0.0257 in [2]; -0.063 in test [3]; 0.0136 in test [4]; 0.0296 in test [5]; -0.0191 in [6]. In addition, the Bliss excess is 0.0732 in test [7]; -0.0765 in test [8]; 0.0798 in test [9]; -0.0365 in the test with Mewo (Melanoma); -0.0073 in test [10]; 0.0186 in test [11]. Moreover, the Bliss excess was -0.025 in [12], 0.0189 in test [13], -0.0233 in test [14] and -0.0327 in the test with COLO-829 (Melanoma). The “combination Emax” value in [15] was 0.908; with NCI-H28 (Mesothelioma) it was 0.452; in test [16], 0.867; in test [17] it was 0.869.
In the case of `COc1cccc(OCCCN)c1-c1cc(Nc2cnc(C#N)cn2)n[nH]1` [Prexasertib] + CN(C)CCCOc1ccc(-c2ccc3ncc4c(c3c2)n(C2CCOCC2)c(=O)n4C)cn1 [AZD0156] (first compound max 1 µM, 7x7, partner max 1 µM), the Bliss excess is 0.0592 in [1]; -0.0038 in test [2]; 0.0109 in test [3]; 0.0382 in [4]; 0.0133 in test [5]; 0.0116 in test [6]. The Bliss excess in test [7] was 0.0423; in test [8] it was -0.0926; in test [9], 0.0134; with Mewo (Melanoma) it was 0.0034; in test [10] it was -0.0459; in test [11], -0.014. The Bliss excess in [12] is 0.0582; in test [13] it was 0.0251; in test [14], -0.081; in the test with COLO-829 (Melanoma), 0.0127. Besides, the “combination Emax” value in [15] amounted to 0.986; in the test on NCI-H28 (Mesothelioma) it was 0.626; in [16], 0.896; in test [17], 0.962.

The values are drawn from the supplement of paper PMC11061612.
